Our source for the Ki values is patent US12492181B2, “Gem-disubstituted piperidine melanocortin subtype-2 receptor (MC2R) antagonists and uses thereof” (Crinetics Pharmaceuticals, Inc., priority 2019, dated 2025).

In this test the target is T1, hMC2 receptor (crude hMC2R membranes from CRE-bla-CHO-K1 cells stably expressing hMC2 receptor and hMRAP accessory protein) (Homo sapiens, UniProt Q01718).
T1 construct: crude membrane fractions
T1 sequence (Q01718 whole entry): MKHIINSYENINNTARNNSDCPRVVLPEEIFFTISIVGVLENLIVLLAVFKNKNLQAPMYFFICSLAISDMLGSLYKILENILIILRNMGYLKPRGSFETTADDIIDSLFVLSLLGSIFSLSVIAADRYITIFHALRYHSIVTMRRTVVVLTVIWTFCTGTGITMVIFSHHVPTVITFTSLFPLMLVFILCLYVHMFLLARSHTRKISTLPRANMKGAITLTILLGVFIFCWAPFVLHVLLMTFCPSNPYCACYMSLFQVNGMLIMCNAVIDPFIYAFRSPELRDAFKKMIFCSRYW
T1 sequence (Q8TCY5 whole entry partner): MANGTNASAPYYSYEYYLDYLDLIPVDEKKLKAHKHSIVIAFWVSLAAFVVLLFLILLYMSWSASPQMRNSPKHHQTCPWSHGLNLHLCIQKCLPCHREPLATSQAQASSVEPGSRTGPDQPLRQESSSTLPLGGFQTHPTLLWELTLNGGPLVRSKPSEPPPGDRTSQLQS
Nature of the test: hMC2 membrane binding assay ([125I]ACTH (1-39) Tyr23, SPA). Conditions: displacement of 0.2 nM [125I]ACTH (1-39) Tyr23 from hMC2R membranes, 1.5 hours at room temperature; read-out: MC2R binding potency. The essentials:
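Ki values come from non-linear regression of SPA scintillation counts, with compounds displacing [125I]ACTH(1-39) Tyr23. Membranes come from CRE-bla-CHO-K1 cells stably expressing hMC2 receptor together with hMRAP. They are preincubated with WGA-coated PVT SPA beads in 50 mM HEPES pH 7.4 with 0.20% BSA, Mg2+, Ca2+ and protease inhibitors.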
For the compound `CCOc1ccccc1-c1ccc(C2(NC(=O)[C@@H]3CCN(C)C3)CCN(c3ccc(Cl)cc3C#N)CC2)cn1` [Compound 2-29, (3R)—N-[1-(4-chloro-2-cyanophenyl)-4-[6-(2-ethoxyphenyl)pyridin-3-yl]piperidin-4-yl]-1-methylpyrrolidine-3-carboxamide], the Ki is less than 10 nM. On to `COc1ccccc1-c1ccc(C2(C(=O)NC[C@@H]3CCN3)CCN(c3ccc(C(F)(F)F)cc3C#N)CC2)cn1` [Compound 1-213, N-{[(2S)-azetidin-2-yl]methyl}-1-[2-cyano-4-(trifluoromethyl)phenyl]-4-[6-(2-methoxyphenyl)pyridin-3-yl]piperidine-4-carboxamide], for which the Ki was less than 10 nM. As to `CCOc1ccccc1-c1ccc(C2(C(=O)N[C@H]3CCN(C)C3)CCN(c3ccc(F)cc3C#N)CC2)cn1` [Compound 1-96, 1-(2-cyano-4-fluorophenyl)-4-[6-(2-ethoxyphenyl)pyridin-3-yl]-N-[(3S)-1-methylpyrrolidin-3-yl]piperidine-4-carboxamide], the Ki is less than 10 nM. Regarding `CCOc1ncccc1-c1ccc(C2(NC(=O)[C@H]3CCN(C)C3)CCN(c3ccc(Cl)cc3C#N)CC2)cn1` [Compound 2-39, (3S)—N-[1-(4-chloro-2-cyanophenyl)-4-{2′-ethoxy-[2,3′-bipyridin]-5-yl}piperidin-4-yl]-1-methylpyrrolidine-3-carboxamide], the Ki was less than 10 nM. As to `Cn1cccc1-c1ccc(C2(C(=O)N[C@@H]3CN4CCC3CC4)CCN(c3ccc(C(F)(F)F)cc3C#N)CC2)cn1` [Compound 1-187, N-[(3S)-1-azabicyclo[2.2.2]octan-3-yl]-1-[2-cyano-4-(trifluoromethyl)phenyl]-4-[6-(1-methyl-1H-pyrrol-2-yl)pyridin-3-yl]piperidine-4-carboxamide], the Ki was less than 10 nM. Take `COc1ncccc1-c1ncc(C2(C(=O)NCCN(C)C)CCN(c3ccc(C(F)(F)F)cc3F)CC2)cc1F` [Compound 1-300, N-[2-(dimethylamino)ethyl]-4-{3-fluoro-2′-methoxy-[2,3′-bipyridin]-5-yl}-1-[2-fluoro-4-(trifluoromethyl)phenyl]piperidine-4-carboxamide]: the Ki was less than 10 nM. For the compound `CCOc1c(F)cccc1-c1ccc(C2(C(=O)N[C@@H]3CCN(C)C3)CCN(c3ccc(C(F)(F)F)cc3C#N)CC2)cn1` [Compound 1-72, 1-[2-cyano-4-(trifluoromethyl)phenyl]-4-[6-(2-ethoxy-3-fluorophenyl)pyridin-3-yl]-N-[(3R)-1-methylpyrrolidin-3-yl]piperidine-4-carboxamide], the Ki was less than 10 nM. With `CCOc1ncccc1-c1ccc(C2(NC(=O)[C@H]3CCCN3C)CCN(c3ccc(C(F)(F)F)cc3C#N)CC2)cc1` [Compound 2-17, (2R)—N-{1-[2-cyano-4-(trifluoromethyl)phenyl]-4-[4-(2-ethoxypyridin-3-yl)phenyl]piperidin-4-yl}-1-methylpyrrolidine-2-carboxamide] the figure was 10 to 100 nM; with `CCOc1ncccc1-c1ccc(C2(C(=O)N[C@@H](C)CNC)CCN(c3ccc(C(F)(F)F)cc3F)CC2)cn1` [Compound 1-321, 4-{2′-ethoxy-[2,3′-bipyridin]-5-yl}-1-[2-fluoro-4-(trifluoromethyl)phenyl]-N-[(2S)-1-(methylamino)propan-2-yl]piperidine-4-carboxamide], less than 10 nM. `COc1ccccc1-c1ccc(C2(C(=O)NCCN3CCC3)CCN(c3ccc(C(F)(F)F)cc3C#N)CC2)cn1` [Compound 1-245, N-[2-(azetidin-1-yl)ethyl]-1-[2-cyano-4-(trifluoromethyl)phenyl]-4-[6-(2-methoxyphenyl)pyridin-3-yl]piperidine-4-carboxamide]: the Ki was less than 10 nM.

Take `CCc1ncccc1-c1ccc(C2(C(=O)N[C@H]3CCN(C)C3)CCN(c3ccc(C(F)(F)F)cc3Cl)CC2)cn1` [Compound 1-172, 1-[2-chloro-4-(trifluoromethyl)phenyl]-4-{2′-ethyl-[2,3′-bipyridin]-5-yl}-N-[(3S)-1-methylpyrrolidin-3-yl]piperidine-4-carboxamide]: the Ki was less than 10 nM.
